Measured values taken from patent US11083717B2, “Compositions and methods for drug sensitization of parasites” (The Texas A&M University System, priority 2015, dated 2021).
≈ marks a conversion by molar mass, not a printed value. Like-named read-outs stand apart in the source and are kept apart here.

Legend:
[1] = tested on: Cryptosporidium parvum (CP); assay: Cell culture model of Cryptosporidium parvum infection in HCT-8 cells, real-time qRT-PCR; assay type: cell-based; details: Cryptosporidium parvum; for inhibition at 0.25 µM: HCT-8, @0.25 uM
How it was run: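 HCT-8 monolayers were infected with C. parvum Iowa oocysts (1.5×10^4/well) for 3 h, then compounds were added after medium exchange and cells were incubated 41 h more (44 h total, 37 °C). Parasite Cp18S rRNA was measured by one-step SYBR qRT-PCR of lysates, normalized to host Hs18S, and % inhibition at the stated µM was derived from a standard curve.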

[2] = tested on: S. cerevisiae; assay: in vitro; details: Saccharomyces cerevisiae
[3] = tested on: human fibroblast; assay: in vitro; details: human
[4] = tested on: Cryptosporidium parvum; details: for effectiveness in the same type of test (IL-12 knockout mouse model): in vivo
Description: The anticryptosporidial activity of the in vitro inhibitors was assessed in the IL-12 knockout mouse model that resembles the acute human disease (Ehigiator H N, Romagnoli P, Borgelt K, Fernandez M, McNair N, Secor W E, Mead J R. 2005. Mucosal cytokine and antigen-specific responses to Cryptosporidium parvum in IL-12p40 KO mice. Parasite Immunol. 27: 17-28; Campbell L D, Stewart J N, Mead J R. 2002. Susceptibility to Cryptosporidium parvum infections in cytokine- and chemokine-receptor knockout mice. J. Parasitol. 88:1014-1016). The protocol was approved by the Institutional Animal Care and Use Committees of Emory University, the AtlantaVAMedical Center, and Brandeis University. Mice (6 to 10 per group) were inoculated with 1,000 purified CP oocysts (Iowa isolate, from cattle). Treatment by gavage began 4 h postinfection with either vehicle (5% dimethyl sulfoxide (DMSO) in canola oil), 50-100 mg/kg compound, or 2,000 mg/kg paromomycin. Compounds were given for 7 days, and mice were sacrificed on day 8 (peak infection). Parasite load was quantified by fluorescence-activated cell sorting (FACS) assays for the presence of the oocysts in the feces at days 0, 4, and 7. Fecal pellets from individual mice were routinely collected daily and homogenized in adjusted volumes of 2.5% potassium dichromate. Samples were processed individually. Aliquots (200 ul) of vortexed samples were processed over microscale sucrose gradients as previously described (Arrowood M J, Hurd M R, Mead J R. 1995. A new method for evaluating experimental cryptosporidial parasite loads using immunofluorescent flowcytometry. J. Parasitol. 81:404-409). The oocyst-containing fraction was collected, washed, and treated with monoclonal antibody (OW5O-FITC) for 20 min. Samples were adjusted to 600 ul, and a portion (100 ul) was assayed with a 102-s sampling interval using logical gating of forward/side scatter and OW5O-FITC fluorescence signal on a Becton, Dickinson FACScan flow cytometer. Flow cytometry data were evaluated by analysis of variance (KaleidaGraph (Synergy Software, Reading Pa.); Microsoft Excel (Microsoft Corporation, Redmond, Wash.)).
NZ-366 (50 mg/kg) and NZ-369 (100 mg/kg) were administered via gavage in a single daily dose to IL-12 knockout mice that were infected with 1,000 CP oocysts. Additional control groups included those treated with single daily doses of vehicle, and paromomycin (Prm) (2,000 mg/kg), by oral gavage.

[5] = Kinetic solubility; assay type: physicochemical
[6] = in vitro
[7] = molecular target: Human ether-a-go-go-related gene (hERG) (Homo sapiens, UniProt Q12809); assay: hERG test (potential cardiotoxicity); assay type: biochemical; details: read-out: hERG (Abbvie)
[8] = MCLint in vitro intrinsic clearance, mouse (MLM); assay type: in vitro ADME
[9] = HCLint in vitro intrinsic clearance, human (HLM); assay type: in vitro ADME
[10] = 44 h, CP in HCT-8 cells, 44 h infection, 50% reduction of parasite growth vs control, NA: not active, read-out: MIC50

Sequence of Human ether-a-go-go-related gene (hERG) (Q12809 whole entry): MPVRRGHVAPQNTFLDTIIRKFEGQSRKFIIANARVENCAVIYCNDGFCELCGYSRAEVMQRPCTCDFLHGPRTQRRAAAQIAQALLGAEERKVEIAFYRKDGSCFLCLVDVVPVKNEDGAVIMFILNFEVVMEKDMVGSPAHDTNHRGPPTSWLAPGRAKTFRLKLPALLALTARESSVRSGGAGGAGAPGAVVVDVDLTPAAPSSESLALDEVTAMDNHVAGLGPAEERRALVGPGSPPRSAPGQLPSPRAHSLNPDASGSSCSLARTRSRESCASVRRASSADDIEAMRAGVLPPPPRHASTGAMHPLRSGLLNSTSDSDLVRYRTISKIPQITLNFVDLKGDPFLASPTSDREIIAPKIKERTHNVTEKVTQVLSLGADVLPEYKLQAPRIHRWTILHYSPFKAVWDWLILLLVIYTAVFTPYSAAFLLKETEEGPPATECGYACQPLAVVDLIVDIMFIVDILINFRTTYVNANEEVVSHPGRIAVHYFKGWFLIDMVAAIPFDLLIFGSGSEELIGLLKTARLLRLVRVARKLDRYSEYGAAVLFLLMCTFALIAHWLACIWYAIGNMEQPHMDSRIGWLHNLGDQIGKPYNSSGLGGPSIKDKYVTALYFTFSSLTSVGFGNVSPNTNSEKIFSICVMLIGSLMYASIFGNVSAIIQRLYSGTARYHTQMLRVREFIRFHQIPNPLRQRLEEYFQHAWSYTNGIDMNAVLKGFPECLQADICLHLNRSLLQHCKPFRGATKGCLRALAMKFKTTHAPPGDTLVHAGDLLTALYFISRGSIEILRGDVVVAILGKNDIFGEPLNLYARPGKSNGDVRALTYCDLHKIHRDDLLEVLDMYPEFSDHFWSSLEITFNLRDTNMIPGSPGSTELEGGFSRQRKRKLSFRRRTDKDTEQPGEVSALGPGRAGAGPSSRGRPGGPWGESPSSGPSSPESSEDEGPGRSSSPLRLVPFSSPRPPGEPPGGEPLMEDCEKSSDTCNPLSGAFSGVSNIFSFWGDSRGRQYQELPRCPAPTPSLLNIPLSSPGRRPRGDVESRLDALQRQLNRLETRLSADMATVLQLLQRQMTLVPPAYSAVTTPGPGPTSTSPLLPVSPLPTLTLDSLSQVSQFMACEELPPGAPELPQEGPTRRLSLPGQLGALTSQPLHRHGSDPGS

| Compound | MIC50 [1, 10] [nM] | concentrations at which not toxic, S. cerevisiae cytotoxicity testing [2] [µM] | concentrations at which not toxic, human fibroblast cytotoxicity testing [3] [µM] | effectiveness in the same type of test (IL-12 knockout mouse model) [4] | Kinetic Sol. [5] [µM] | MIC50 ([1]; read-out: MIC50 (nM) (CP)) | IC50 ([6]; Saccharomyces cerevisiae) [µM] | IC50 ([6]; human) [µM] | IC50 [7] [µM] | MCLint (mL/min/g liver), MLM [8] | HCLint (mL/min/g liver), HLM [9] | inhibition at 0.25 µM [1] [%] | Mouse Model (Mead) DPI7 ([4]; @50 mg/kg, day 7 post infection) | inhibition at 31 µM ([1]; HCT-8, @31 uM, read-out: % (inhibition of CP) printed in the MIC50 (nM) (CP) column) [%] |
| --- | --- | --- | --- | --- | --- | --- | --- | --- | --- | --- | --- | --- | --- | --- |
| CC(C(=O)N1CCNCC1)c1ccc(Oc2nc3ccc(Cl)cc3s2)cc1 (centres unmarked) [NZ-364, 2-{4-[(6-chloro-1,3-benzothiazol-2-yl)oxy]phenyl}-1-(piperazin-1-yl)propan-1-one] | 120 (≈ 0.0482 µg/mL) | ≥ 100 | ≥ 100 | effective | – | – | – | – | – | – | – | – | – | – |
| CC(C(=O)N1CCOCC1)c1ccc(Oc2nc3ccc(Cl)cc3s2)cc1 (centres unmarked) [NZ-365, 2-{4-[(6-chloro-1,3-benzothiazol-2-yl)oxy]phenyl}-1-(morpholin-4-yl)propan-1-one] | 25 (≈ 0.0101 µg/mL) | 50 to 100 | ≥ 100 | – | 28 | 25 (≈ 0.0101 µg/mL) | > 100 | > 100 | 12 | MLM = 10 mL/min/g liver | HLM = 4.8 mL/min/g liver | – | – | – |
| CC(C(=O)NCC(O)CO)c1ccc(Oc2nc3ccc(Cl)cc3s2)cc1 (centres unmarked) [NZ-372, 2-{4-[(6-chloro-1,3-benzothiazol-2-yl)oxy]phenyl}-N-(2,3-dihydroxypropyl)propanamide] | 85 (≈ 0.0346 µg/mL) | ≥ 100 | – | effective | – | – | – | – | – | – | – | – | – | – |
| CN1CCN(C(=O)Nc2ccc(Oc3nc4ccc(Cl)cc4s3)cc2)CC1 [NZ-475, N-{4-[(6-chloro-1,3-benzothiazol-2-yl)oxy]phenyl}-4-methylpiperazine-1-carboxamide] | 60 (≈ 0.0242 µg/mL) | ≥ 100 | ≥ 100 | effective | – | – | – | – | – | – | – | – | – | – |
| NC(=O)Cc1ccc(Oc2nc3ccc(F)cc3s2)cc1F [NZ-484, 2-{2-fluoro-4-[(6-fluoro-1,3-benzothiazol-2-yl)oxy]phenyl}acetamide] | ~1000 (≈ 0.32 µg/mL) | ≥ 100 | ≥ 100 | – | – | – | – | – | – | – | – | – | – | – |
| NC(=O)Cc1ccc(Oc2nc3cc(F)c(F)cc3s2)cc1 [NZ-485, 2-{4-[(5,6-difluoro-1,3-benzothiazol-2-yl)oxy]phenyl}acetamide] | 1000 to 4000 (≈ 0.32 to 1.28 µg/mL) | ≥ 100 | ≥ 100 | – | – | – | – | – | – | – | – | – | – | – |
| CC(C(=O)N1CCNCC1)c1ccc(Oc2nc3cc(F)c(F)cc3s2)cc1 (centres unmarked) [NZ-489, 2-{4-[(5,6-difluoro-1,3-benzothiazol-2-yl)oxy]phenyl}-1-(piperazin-1-yl)propan-1-one] | < 250 | ≥ 100 | ≥ 100 | – | – | – | – | – | – | – | – | 68 | – | – |
| O=C(Cc1ccc(Oc2nc3ccc(F)cc3s2)cc1)N1CCCC1 [NZ-490, 2-{4-[(6-fluoro-1,3-benzothiazol-2-yl)oxy]phenyl}-1-(pyrrolidin-1-yl)ethan-1-one] | ~250 (≈ 0.0891 µg/mL) | ≥ 100 | ≥ 100 | – | – | – | – | – | – | – | – | 60 | – | – |
| NC(=O)Cc1ccc(Oc2nc3cc(F)c(F)cc3s2)cc1F [NZ-496, 2-{4-[(5,6-difluoro-1,3-benzothiazol-2-yl)oxy]-2-fluorophenyl}acetamide] | 250 to 1000 (≈ 0.0846 to 0.338 µg/mL) | ≥ 100 | ≥ 100 | – | – | – | – | – | – | – | – | – | – | – |
| NC(=O)Cc1ccc(Oc2nc3ccc(Cl)cc3s2)cc1F [NZ-500, 2-{4-[(6-chloro-1,3-benzothiazol-2-yl)oxy]-2-fluorophenyl}acetamide] | ~250 (≈ 0.0842 µg/mL) | ≥ 100 | ≥ 100 | – | – | – | – | – | – | – | – | – | – | – |
| NC(=O)Cc1ccc(Oc2nc3ccc(Cl)cc3s2)cc1 [NZ-505, 2-{4-[(6-chloro-1,3-benzothiazol-2-yl)oxy]phenyl}acetamide] | ~250 (≈ 0.0797 µg/mL) | ≥ 100 | ≥ 100 | – | – | – | – | – | – | – | – | – | – | – |
| CC(C(=O)NCCN(C)C)c1ccc(Oc2nc3ccc(Cl)cc3s2)cc1 (centres unmarked) [NZ-516, 2-{4-[(6-chloro-1,3-benzothiazol-2-yl)oxy]phenyl}-N-[2-(dimethylamino)ethyl]propanamide] | 16 (≈ 0.00646 µg/mL) | ≥ 100 | ≥ 100 | effective | 100 | 16 (≈ 0.00646 µg/mL) | > 100 | 5.6 | 2.7 | MLM = 4.1 mL/min/g liver | HLM = 0.54 mL/min/g liver | – | DPI7 = 94% | – |
| CC(C(=O)NC1CC1)c1ccc(Oc2nc3ccc(Cl)cc3s2)cc1 (centres unmarked) [NZ-538, 2-{4-[(6-chloro-1,3-benzothiazol-2-yl)oxy]phenyl}-N-cyclopropylpropanamide] | 54 (≈ 0.0201 µg/mL) | – | – | – | – | 54 (≈ 0.0201 µg/mL) | > 100 | > 100 | 7.3 | MLM = 3.9 mL/min/g liver | HLM = 0.7 mL/min/g liver | – | – | – |
| CC(C(=O)NC1CCC1)c1ccc(Oc2nc3ccc(Cl)cc3s2)cc1 (centres unmarked) [NZ-539, 2-{4-[(6-chloro-1,3-benzothiazol-2-yl)oxy]phenyl}-N-cyclobutylpropanamide] | 57 (≈ 0.0221 µg/mL) | – | – | – | – | 57 (≈ 0.0221 µg/mL) | > 100 | > 100 | > 30 | MLM = 4.4 mL/min/g liver | HLM = 1.8 mL/min/g liver | – | – | – |
| COCCNC(=O)C(C)c1ccc(Oc2nc3ccc(Cl)cc3s2)cc1 (centres unmarked) [NZ-541, 2-{4-[(6-chloro-1,3-benzothiazol-2-yl)oxy]phenyl]-N-(2-methoxyethyl)propanamide] | 81 (≈ 0.0317 µg/mL) | – | – | – | – | 81 (≈ 0.0317 µg/mL) | > 100 | > 100 | 27 | MLM = 6.3 mL/min/g liver | HLM = 2.0 mL/min/g liver | – | – | – |
| CC(C(=O)NC1COC1)c1ccc(Oc2nc3ccc(Cl)cc3s2)cc1 (centres unmarked) [NZ-543, 2-{4-[(6-chloro-1,3-benzothiazol-2-yl)oxy]phenyl}-N-(oxetan-3-yl)propanamide] | 45 (≈ 0.0175 µg/mL) | – | – | – | – | 45 (≈ 0.0175 µg/mL) | > 100 | > 100 | 24 | MLM = 2 mL/min/g liver | HLM = 1.2 mL/min/g liver | – | – | – |
| CC(C(=O)NC1CCOC1)c1ccc(Oc2nc3ccc(Cl)cc3s2)cc1 (centres unmarked) [NZ-544, 2-{4-[(6-chloro-1,3-benzothiazol-2-yl)oxy]phenyl}-N-(oxolan-3-yl)propanamide] | 72 (≈ 0.029 µg/mL) | – | – | – | – | 72 (≈ 0.029 µg/mL) | > 100 | > 100 | 11 | MLM = 3.3 mL/min/g liver | HLM = 2.6 mL/min/g liver | – | – | – |
| CC(C(=O)NCCS(C)(=O)=O)c1ccc(Oc2nc3ccc(Cl)cc3s2)cc1 (centres unmarked) [NZ-578, 2-{4-[(6-chloro-1,3-benzothiazol-2-yl)oxy]phenyl}-N-(2-methanesulfonylethyl)propanamide] | 18 (≈ 0.0079 µg/mL) | – | – | – | – | < 30 | – | > 100 | – | – | – | – | – | 83 |
